Measured values reported in patent US4738929A, “Purified culture of streptomyces galanosa” (Warner-Lambert Company, priority 1986, dated 1988).
≈ marks a conversion by molar mass, not a printed value. Structures can show the parent of a compound that is named as a salt.

Tests used:
[1] = test system: Escherichia coli (PD-04863); assay: Microtiter dilution MIC, Escherichia coli (PD-04863); format: cell-based; conditions: Mueller-Hinton broth, 37° C., 16-24 hours, read-out: Minimal Inhibitory Concentration
Experimental: (§1) The compounds of the present invention and their pharmaceutically acceptable salts are useful as antimicrobial agents. The antimicrobial activity of the representative examples of compounds in accordance with the present invention against five species of gram-negative bacteria, seven species of gram-positive bacteria, four species of yeast, and two species of fungi were determined using the microtiter dilution technique. This method is described by T. B. Conrath, "Handbook of Microtiter Procedures," Dynatech Corp., Cambridge, Mass., USA (1972); and T. L. Gavan et al, "Microdilution Test Procedures," in Manual of Clinical Microbiology, E. H. Lennette, Ed., American Soc. for Microbiol., Washington, D.C., U.S.A. (1980).
(§2) Each agent is suspended in a nonaqueous solvent for several minutes to sterilize the compound or, if the compound is completely soluble in water, the aqueous solution is sterilized by passage through a 0.2-0.45 micrometer membrane filter.
(§3) Each well of a sterile 96-well microdilution tray is filled under aseptic conditions with 0.1 ml of Mueller-Hinton broth (for antibacterial tests), or yeast extract-peptone-dextrose or buffered supplemented yeast nitrogen base (for tests with yeasts or fungi).
(§4) […] of the test compound solution is added to each of the eight wells in the first row of the tray. A microdilutor apparatus is used to simultaneously mix the contents of these wells and to transfer aliquots to each succeeding row of cells to obtain a range of serially diluted solutions. The last row of wells is untreated and serves as a control.
(§5) Each well containing broth and test compound is inoculated with about ten microliters of inoculum of the test microorganism. One well in the last row of wells (which is free of test compound) is not inoculated and is used as a sterility control The trays are sealed and incubated at 37° C. for 16-24 hours (for bacteria) or at 28° C. for 36-48 hours (yeasts or fungi). During incubation, the inoculated medium is shaken at 100-140 rpm to increase contact between the microorganism cells and test compounds.
(§6) After the incubation period, each plate is evaluated by determining the lowest concentration of test compound required to inhibit the growth of the microorganism and recorded as a minimal inhibitory concentration (MIC).

Salmonella typhimurium = assay: Microtiter dilution MIC, Salmonella typhimurium; format: cell-based; conditions: Salmonella enterica, Mueller-Hinton broth, 37° C., 16-24 hours, read-out: Minimal Inhibitory Concentration
Experimental: as §1, §2, §3, §4, §5, §6

Alcaligenes viscolactis = assay: Microtiter dilution MIC, Alcaligenes viscolactis; format: cell-based; conditions: Mueller-Hinton broth, 37° C., 16-24 hours, read-out: Minimal Inhibitory Concentration
Experimental: as §1, §2, §3, §4, §5, §6

Branhamella catarrhalis = assay: Microtiter dilution MIC, Branhamella catarrhalis; format: cell-based; conditions: Moraxella catarrhalis; Mueller-Hinton broth, 37° C., 16-24 hours; read-out: Minimal Inhibitory Concentration
Experimental: as §1, §2, §3, §4, §5, §6

Pseudomonas aeruginosa = assay: Microtiter dilution MIC, Pseudomonas aeruginosa; format: cell-based; conditions: Mueller-Hinton broth, 37° C., 16-24 hours, read-out: Minimal Inhibitory Concentration
Experimental: as §1, §2, §3, §4, §5, §6

Micrococcus luteus = assay: Microtiter dilution MIC, Micrococcus luteus; format: cell-based; conditions: Mueller-Hinton broth, 37° C., 16-24 hours, read-out: Minimal Inhibitory Concentration
Experimental: as §1, §2, §3, §4, §5, §6

Staphylococcus aureus = assay: Microtiter dilution MIC, Staphylococcus aureus; format: cell-based; conditions: Mueller-Hinton broth, 37° C., 16-24 hours, read-out: Minimal Inhibitory Concentration
Experimental: as §1, §2, §3, §4, §5, §6

Streptococcus pyogenes = assay: Microtiter dilution MIC, Streptococcus pyogenes; format: cell-based; conditions: Mueller-Hinton broth, 37° C., 16-24 hours, read-out: Minimal Inhibitory Concentration
Experimental: as §1, §2, §3, §4, §5, §6

Streptococcus pneumoniae = assay: Microtiter dilution MIC, Streptococcus pneumoniae; format: cell-based; conditions: Mueller-Hinton broth, 37° C., 16-24 hours, read-out: Minimal Inhibitory Concentration
Experimental: as §1, §2, §3, §4, §5, §6

Streptococcus faecalis = assay: Microtiter dilution MIC, Streptococcus faecalis; format: cell-based; conditions: Enterococcus faecalis; Mueller-Hinton broth, 37° C., 16-24 hours; read-out: Minimal Inhibitory Concentration
Experimental: as §1, §2, §3, §4, §5, §6

Bacillus cereus = assay: Microtiter dilution MIC, Bacillus cereus; format: cell-based; conditions: Mueller-Hinton broth, 37° C., 16-24 hours, read-out: Minimal Inhibitory Concentration
Experimental: as §1, §2, §3, §4, §5, §6

Bacillus megaterium = assay: Microtiter dilution MIC, Bacillus megaterium; format: cell-based; conditions: Priestia megaterium; Mueller-Hinton broth, 37° C., 16-24 hours; read-out: Minimal Inhibitory Concentration
Experimental: as §1, §2, §3, §4, §5, §6

Saccharomyces cerevisiae = assay: Microtiter dilution MIC, Saccharomyces cerevisiae; format: cell-based; conditions: yeasts or fungi, 28° C., 36-48 hours, read-out: Minimal Inhibitory Concentration
Experimental: as §1, §2, §3, §4, §5, §6

[2] = test system: Schizosaccharomyces pombe; assay: Microtiter dilution MIC, Schizosaccharomyces pombe; format: cell-based; conditions: yeasts or fungi, 28° C., 36-48 hours, read-out: Minimal Inhibitory Concentration
Experimental: as §1, §2, §3, §4, §5, §6

Rhodotorula aurantiaca = assay: Microtiter dilution MIC, Rhodotorula aurantiaca; format: cell-based; conditions: Buckleyzyma aurantiaca; yeasts or fungi, 28° C., 36-48 hours; read-out: Minimal Inhibitory Concentration
Experimental: as §1, §2, §3, §4, §5, §6

Torulopsis albida = assay: Microtiter dilution MIC, Torulopsis albida; format: cell-based; conditions: Naganishia albida; yeasts or fungi, 28° C., 36-48 hours; read-out: Minimal Inhibitory Concentration
Experimental: as §1, §2, §3, §4, §5, §6

Mucor paraciticus = assay: Microtiter dilution MIC, Mucor paraciticus; format: cell-based; conditions: yeasts or fungi, 28° C., 36-48 hours, read-out: Minimal Inhibitory Concentration
Experimental: as §1, §2, §3, §4, §5, §6

Rhizopus japonicus = assay: Microtiter dilution MIC, Rhizopus japonicus; format: cell-based; conditions: yeasts or fungi, 28° C., 36-48 hours, read-out: Minimal Inhibitory Concentration
Experimental: as §1, §2, §3, §4, §5, §6

[3] = test system: L1210 murine leukemia cell line; assay: Cytotoxic activity against L1210 murine leukemia in vitro; format: cell-based; conditions: Mus musculus, 50% inhibition of growth, duplicate tests
Experimental: The antineoplastic activities of representative compounds of the present invention against the L1210 murine leukemia cell line in vitro were determined using the methods detailed by R. I. Geran et al, "Protocols for Screening Chemical Agents and Natural Products Against Animal Tumors and Other Biological Systems," 3rd Edition, Cancer Chemotherapy Reports, Part 3, Vol. 3, pages 1-87 (1972) which is incorporated herein by reference.
The IC50 values are the concentration of compound required to produce 50% inhibition of growth of the cell line.

P388 leukemia cell line = assay: In vivo antineoplastic activity against transplanted P388 leukemia in mice; conditions: Days 1-9
Experimental: The in vivo antineoplastic activity of representative compounds of the present invention against the transplanted P388 leukemia cell line in mice was determined in accordance with the protocol given in Geran et al, cited above. The mice were infected intraperitoneally on Day 0 and then administered the indicated doses of the test compounds on Days 1-9.

Cc1c(O)c(C=O)c2nc3c(O)ccc(C(=O)NCCN(C)C)c3nc2c1O [Example 8, N-[2-(dimethylamino)ethyl]-6-formyl-4,7,9-trihydroxy-8-methyl-1-phenazinecarboxamide]
MIC [1]: 1000 µg/mL (≈ 2600 µM)
MIC (Salmonella typhimurium): 111 µg/mL (≈ 289 µM)
MIC (Alcaligenes viscolactis): 4.1 µg/mL (≈ 10.7 µM)
MIC (Branhamella catarrhalis): 4.1 µg/mL (≈ 10.7 µM)
MIC (Pseudomonas aeruginosa): > 1000 µg/mL
MIC (Micrococcus luteus): 1000 µg/mL (≈ 2600 µM)
MIC (Staphylococcus aureus): 1000 µg/mL (≈ 2600 µM)
MIC (Streptococcus pyogenes): 1000 µg/mL (≈ 2600 µM)
MIC (Streptococcus pneumoniae): 1000 µg/mL (≈ 2600 µM)
MIC (Streptococcus faecalis): > 1000 µg/mL
MIC (Bacillus cereus): 37 µg/mL (≈ 96.3 µM)
MIC (Bacillus megaterium): 1000 µg/mL (≈ 2600 µM)
MIC (Saccharomyces cerevisiae): > 1000 µg/mL
MIC [2]: > 1000 µg/mL
MIC (Rhodotorula aurantiaca): > 1000 µg/mL
MIC (Torulopsis albida): > 1000 µg/mL
MIC (Mucor paraciticus): > 1000 µg/mL
MIC (Rhizopus japonicus): > 1000 µg/mL
IC50 [3]: 0.24 µg/mL (≈ 0.624 µM)
% T/C (P388 leukemia cell line; 3.12 mg/kg/injection): 113%
% T/C (P388 leukemia cell line; 6.25 mg/kg/injection): 129%
% T/C (P388 leukemia cell line; 12.5 mg/kg/injection): 146%
% T/C (P388 leukemia cell line; 25 mg/kg/injection): 205%

Cc1c(O)c(C=O)c2nc3c(O)ccc(C(=O)NCCN(C)C)c3nc2c1O [Example 9, N-[2-(dimethylamino)ethyl]-6-formyl-4,7,9-trihydroxy-8-methyl-1-phenazinecarboxamide, methanesulfonate salt]
% T/C (P388 leukemia cell line; 5 mg/kg/injection): 139%
% T/C (P388 leukemia cell line; 10 mg/kg/injection): 143%
% T/C (P388 leukemia cell line; 20 mg/kg/injection): 144%
% T/C (P388 leukemia cell line; 40 mg/kg/injection): 170%
% T/C (P388 leukemia cell line; 80 mg/kg/injection): 219%

Cc1c(O)c(C=O)c2nc3c(O)ccc(C(=O)O)c3nc2c1O [Example 11, 6-formyl-4,7,9-trihydroxy-8-methyl-1-phenazinecarboxylic acid]
MIC [1]: 111 µg/mL (≈ 353 µM)
MIC (Salmonella typhimurium): 111 µg/mL (≈ 353 µM)
MIC (Alcaligenes viscolactis): 12.3 µg/mL (≈ 39.1 µM)
MIC (Branhamella catarrhalis): 12.3 µg/mL (≈ 39.1 µM)
MIC (Pseudomonas aeruginosa): 1000 µg/mL (≈ 3180 µM)
MIC (Micrococcus luteus): 111 µg/mL (≈ 353 µM)
MIC (Staphylococcus aureus): 37 µg/mL (≈ 118 µM)
MIC (Streptococcus pyogenes): 111 µg/mL (≈ 353 µM)
MIC (Streptococcus pneumoniae): 111 µg/mL (≈ 353 µM)
MIC (Streptococcus faecalis): 111 µg/mL (≈ 353 µM)
MIC (Bacillus cereus): 37 µg/mL (≈ 118 µM)
MIC (Bacillus megaterium): 111 µg/mL (≈ 353 µM)
MIC (Saccharomyces cerevisiae): 111 µg/mL (≈ 353 µM)
MIC [2]: 37 µg/mL (≈ 118 µM)
MIC (Rhodotorula aurantiaca): 12.3 µg/mL (≈ 39.1 µM)
MIC (Torulopsis albida): 111 µg/mL (≈ 353 µM)
MIC (Mucor paraciticus): 37 µg/mL (≈ 118 µM)
MIC (Rhizopus japonicus): 37 µg/mL (≈ 118 µM)
IC50 [3]: 3.47 µg/mL (≈ 11 µM)

CN(C)CCNC(=O)c1ccc(O)c2nc3c(C=O)c(O)cc(O)c3nc12 [Example 14, N-[2-(dimethylamino)ethyl]-6-formyl-4,7,9-trihydroxy-1-phenazinecarboxamide]
MIC [1]: 111 µg/mL (≈ 300 µM)
MIC (Salmonella typhimurium): 111 µg/mL (≈ 300 µM)
MIC (Alcaligenes viscolactis): 12.3 µg/mL (≈ 33.2 µM)
MIC (Branhamella catarrhalis): 12.3 µg/mL (≈ 33.2 µM)
MIC (Pseudomonas aeruginosa): 1000 µg/mL (≈ 2700 µM)
MIC (Micrococcus luteus): 111 µg/mL (≈ 300 µM)
MIC (Staphylococcus aureus): 37 µg/mL (≈ 99.9 µM)
MIC (Streptococcus pyogenes): 111 µg/mL (≈ 300 µM)
MIC (Streptococcus pneumoniae): 111 µg/mL (≈ 300 µM)
MIC (Streptococcus faecalis): 111 µg/mL (≈ 300 µM)
MIC (Bacillus cereus): 37 µg/mL (≈ 99.9 µM)
MIC (Bacillus megaterium): 111 µg/mL (≈ 300 µM)
MIC (Saccharomyces cerevisiae): > 1000 µg/mL
MIC [2]: 111 µg/mL (≈ 300 µM)
MIC (Rhodotorula aurantiaca): 37 µg/mL (≈ 99.9 µM)
MIC (Torulopsis albida): 333 µg/mL (≈ 899 µM)
MIC (Mucor paraciticus): 333 µg/mL (≈ 899 µM)
MIC (Rhizopus japonicus): 333 µg/mL (≈ 899 µM)
